Measurements taken from patent US20130122541A1, “MICROORGANISM PRODUCTION OF HIGH-VALUE CHEMICAL PRODUCTS, AND RELATED COMPOSITIONS, METHODS AND SYSTEMS” (The Regents of the University of Colorado, priority 2010, published 2013).
In brackets after ≈: the same amount, converted by molar mass. Read-outs that look alike come from different tables or passages of the source.

Tests used:
Assay in all cases: microbe, parasite or virus in culture
E. coli = assay type: cell-based; settings: aerobic
Description: For MIC evaluations, the final results are expressed in chemical agent concentrations determined by analysis of the stock solution by HPLC (i.e., see Subsection IIIb).
The minimum inhibitory concentration (MIC) was determined aerobically in a 96 well-plate format. […] Media supplements were added according to levels reported in the Supplements Table, where specified. Overnight cultures of strains were grown in triplicate in 5 mL LB (with antibiotic where appropriate). A 1% (v/v) inoculum was introduced into a 5 ml culture of M9 minimal media.

E. coli K12 = settings: Escherichia coli, K12, 24 h
[1] = test system: Yeast strains (S288C background); assay type: cell-based, Saccharomyces cerevisiae; settings: for MIC: Saccharomyces cerevisiae
Description: The minimum inhibitory concentration (MIC) was determined anaerobically in a 96 well-plate format. […] A 1% (v/v) inoculum was introduced into a 5 ml culture of SD minimal media without vitamins. After the cells reached mid-exponential phase, the culture was diluted to an OD600 of 0.200. The cells were further diluted 1:5 and a 10 μL aliquot was used to inoculate each well of a 96 well plate (˜10^4 cells per well) to total volume of 100 uL. […] Plates were incubated for 72 hours at 30 C. […] Plates were sealed in biobag anaerobic chambers that contained gas generators for anaerobic conditions and incubated for 72 hours at 30 C.

O=C(O)CCO [3-HP, 3-hydroxypropionic acid]
% Increase Over Control (E. coli; strain BX_00315.0 (pSmart-LC-Kan-aroKB C1)): 40% | % Increase Over Control (E. coli; strain BX_00317.0 (pSmart-LC-Kan-ilvA operon)): 40% | % Increase Over Control (E. coli; strain BX_00318.0 (pSmart-LC-Kan-cysM)): 40% | % Increase Over Control (E. coli; strain BX_00319.0 (pK223-aroH)): 50% | % Increase Over Control (E. coli; strain BX_00321.0 (pK223-ct-his-thrA)): 75% | % Increase Over Control (E. coli; strain BX_00322.0 (pJ61-speFED)): 40% | % Increase Over Control (E. coli; strain BX_00323.0 (pJ61-aroG)): 40% | % Increase Over Control (E. coli; strain BX_00324.0 (pJ61-thrA)): 40% | % Increase Over Control (E. coli; strain BX_00325.0 (pJ61-asd)): 40% | % Increase Over Control (E. coli; strain BX_00326.0 (pJ61-ilvA)): 40% | % Increase Over Control (E. coli; strain BX_00327.0 (pJ61-cysM)): 40% | % Increase Over Control (E. coli; strain BX_00334.0 (pSmart-HC-Amp-cadA)): 60% | % Increase Over Control (E. coli; strain BX_00335.0 (pSmart-HC-Amp-prs)): 40% | % Increase Over Control (E. coli; strain BX_00336.0 (pSmart-HC-Amp-nrdAB)): 40% | % Increase Over Control (E. coli; strain BX_00337.0 (pSmart-HC-Amp-nrdEF)): 40% | % Increase Over Control (E. coli; strain BX_00352.0 (pSmart-LC-Kan-metC C1)): 40% | % Increase Over Control (E. coli; strain BX_00353.0 (pSmart-HC-Amp-metC)): 80% | % Increase Over Control (E. coli; strain BX_00354.0 (pSmart-HC-Amp-cynTS)): 80% | % Increase Over Control (E. coli; strain BX_00356.0 (pSmart-HC-Amp-LysA)): 20% | % Increase Over Control (E. coli; strain BX_00357.0 (pKK223-aroH*445)): 50% | % Increase Over Control (E. coli; strain BX_00358.0 (pKK223-aroH*447)): 75% | % Increase Over Control (E. coli; strain BX_00359.0 (pKK223-aroH*457)): 75% | % Increase Over Control (E. coli; strain BX_00361.0 (pACYC177 (Kan only)-cynTS)): 40% | % Increase Over Control (E. coli; strain BX_00362.0 (pACYC177 (Kan only)-aroH)): 20% | % Increase Over Control (E. coli; strain BX_00363.0 (pACYC177 (kan only)-speB)): 40% | % Increase Over Control (E. coli; strain BX_00364.0 (pACYC177 (Kan only)-metE)): 40% | % Increase Over Control (E. coli; strain BX_00365.0 (pACYC177 (Kan only)-metC)): 40% | % Increase Over Control (E. coli; strain BX_00368.0 (pBT-3-cynTS)): 20% | % Increase Over Control (E. coli; strain BX_00370.0 (pBT-3-speB)): 20% | MIC (E. coli K12; read-out: Minimum inhibitory concentration (MIC) for E. coli K12 in 100 g/L stock solution 3-HP (control)): 20 mg/mL (≈ 222 mM) | MIC (E. coli K12; read-out: Minimum inhibitory concentration (MIC) of 3-HP for E. coli K12 in M9 minimal media): 30 mg/mL (≈ 333 mM) | % Increase Over Control ([1]; S288C, SD media, supplements none (control), anaerobic): 0% | MIC ([1]; read-out: Average MIC Assay Result (g/L 3-HP), S288C, SD media, supplements none (control), anaerobic): 38 g/L (≈ 422 mM) | MIC ([1]; read-out: MIC Assay Result (g/L 3-HP), strain YX-022 (BY4722, pyes2.1-Aro3 pRS425-ILV6), SD, anaerobic): 50 g/L (≈ 555 mM) | MIC ([1]; read-out: MIC Assay Result (g/L 3-HP), strain YX-CJR-001 (BY4709, pRS426 EV, control), SD, anaerobic): 40 g/L (≈ 444 mM) | MIC ([1]; read-out: MIC Assay Result (g/L 3-HP), strain YX-CJR-005 (BY4709, pYes2.1-Met6), SD, anaerobic): 60 g/L (≈ 666 mM) | MIC ([1]; read-out: MIC Assay Result (g/L 3-HP), strain YX-CJR-007 (BY4709, pyes2.1-ILV6), SD, anaerobic): 50 g/L (≈ 555 mM) | MIC ([1]; read-out: MIC Assay Result (g/L 3-HP), strain YX-CJR-008 (BY4709, pyes2.1-ILV1), SD, anaerobic): 60 g/L (≈ 666 mM) | MIC ([1]; read-out: MIC Assay Result (g/L 3-HP), strain YX-CJR-010 (BY4709, pyes2.1-Thr1), SD, anaerobic): 50 g/L (≈ 555 mM) | MIC ([1]; read-out: MIC Assay Result (g/L 3-HP), strain YX-CJR-011 (BY4709, pyes2.1-Ser2), SD, anaerobic): 50 g/L (≈ 555 mM) | MIC ([1]; read-out: MIC Assay Result (g/L 3-HP), strain YX-CJR-013 (BY4709, pyes2.1-ser3), SD, anaerobic): 50 g/L (≈ 555 mM) | MIC ([1]; read-out: MIC Assay Result (g/L 3-HP), strain YX-CJR-014 (BY4709, pyes2.1-arg2), SD, anaerobic): 50 g/L (≈ 555 mM) | MIC ([1]; read-out: MIC Assay Result (g/L 3-HP), strain YX-CJR-015 (BY4709, pyes2.1-RNR1), SD, anaerobic): 50 g/L (≈ 555 mM) | MIC ([1]; read-out: MIC Assay Result (g/L 3-HP), strain YX-CJR-016 (BY4709, pyes2.1-Aro3), SD, anaerobic): 50 g/L (≈ 555 mM) | MIC ([1]; read-out: MIC Assay Result (g/L 3-HP), strain YX-CJR-018 (BY4709, pyes2.1-Tyr1), SD, anaerobic): 50 g/L (≈ 555 mM) | MIC ([1]; read-out: MIC Assay Result (g/L 3-HP), strain YX-CJR-021 (BY4709, pYes2.1-Trp1), SD, anaerobic): 50 g/L (≈ 555 mM) | % Increase Over Control ([1]; strain YX-022 (pyes2.1-Aro3 pRS425-ILV6) vs control, anaerobic): 25% | % Increase Over Control ([1]; strain YX-CJR-005 (pYes2.1-Met6) vs YX-CJR-001, anaerobic): 50% | % Increase Over Control ([1]; strain YX-CJR-007 (pyes2.1-ILV6) vs YX-CJR-001, anaerobic): 25% | % Increase Over Control ([1]; strain YX-CJR-008 (pyes2.1-ILV1) vs YX-CJR-001, anaerobic): 50% | % Increase Over Control ([1]; strain YX-CJR-010 (pyes2.1-Thr1) vs YX-CJR-001, anaerobic): 25% | % Increase Over Control ([1]; strain YX-CJR-011 (pyes2.1-Ser2) vs YX-CJR-001, anaerobic): 25% | % Increase Over Control ([1]; strain YX-CJR-013 (pyes2.1-ser3) vs YX-CJR-001, anaerobic): 25% | % Increase Over Control ([1]; strain YX-CJR-014 (pyes2.1-arg2) vs YX-CJR-001, anaerobic): 25% | % Increase Over Control ([1]; strain YX-CJR-015 (pyes2.1-RNR1) vs YX-CJR-001, anaerobic): 25% | % Increase Over Control ([1]; strain YX-CJR-016 (pyes2.1-Aro3) vs YX-CJR-001, anaerobic): 25% | % Increase Over Control ([1]; strain YX-CJR-018 (pyes2.1-Tyr1) vs YX-CJR-001, anaerobic): 25% | % Increase Over Control ([1]; strain YX-CJR-021 (pYes2.1-Trp1) vs YX-CJR-001, anaerobic): 25%
